Series [1] concerns RSV subgenomic replicon 395 HeLa and APC126. Put plainly: RSV subgenomic replicon assay (Renilla luciferase). The note with it: human respiratory syncytial virus; RSV replicon cells (395 HeLa 7 days or APC126 3 days); Table G = less than 1 μM, Table H = equal to or higher than 1 μM and less than 50 μM. It is filed as cell-based. In short, it runs like this: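 Replicon cells (RSV with SH, G, F replaced by blasticidin resistance; 395 HeLa or BHK-derived APC126) exposed to 9-point 1:3 compound dilutions in 1% DMSO for 7 days (395 HeLa) or 3 days (APC126) at 37 °C. Renilla luciferase luminescence read; EC50 is concentration cutting signal 50% versus untreated cells.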

A short description of series [2]: Cytotoxicity determination (CCK-8, without addition of virus). It is filed as cell-based. As to conditions: human, HEp-2 cells (uninfected), no virus, Table C = greater than 100 μM, Table D = equal to or less than 100 μM and greater than 10 μM. The procedure, abridged:
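HEp-2 cells, no virus, exposed to compound from 100 μM in ½ serial dilutions (7 points, duplicate, 1% DMSO) for 5 days at 37° C, 5% CO2. Viability by CCK-8 (3-4 h) optical density; CC50 calculated.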

The target of series [3] is recombinant RSV complex (Human respiratory syncytial virus A, UniProt P28887). Put plainly: RSV polymerase inhibition assay. The series is classed as biochemical. The note with it: 10 nM recombinant RSV complex, 2 h at 30° C.; Table E = <1 μM, Table F = <50 μM; read-out: IC50. The procedure, abridged: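 10 nM recombinant RSV polymerase complex in Tris-HCl pH7.5, 6 mM MgCl2 with RNA oligonucleotides and radionucleotides, incubated 2 h at 30° C with rising inhibitor concentrations. Stopped with EDTA; radiolabelled RNA product counted by scintillation; IC50 from sigmoidal non-linear regression.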
Sequence of recombinant RSV complex (P28887 whole entry): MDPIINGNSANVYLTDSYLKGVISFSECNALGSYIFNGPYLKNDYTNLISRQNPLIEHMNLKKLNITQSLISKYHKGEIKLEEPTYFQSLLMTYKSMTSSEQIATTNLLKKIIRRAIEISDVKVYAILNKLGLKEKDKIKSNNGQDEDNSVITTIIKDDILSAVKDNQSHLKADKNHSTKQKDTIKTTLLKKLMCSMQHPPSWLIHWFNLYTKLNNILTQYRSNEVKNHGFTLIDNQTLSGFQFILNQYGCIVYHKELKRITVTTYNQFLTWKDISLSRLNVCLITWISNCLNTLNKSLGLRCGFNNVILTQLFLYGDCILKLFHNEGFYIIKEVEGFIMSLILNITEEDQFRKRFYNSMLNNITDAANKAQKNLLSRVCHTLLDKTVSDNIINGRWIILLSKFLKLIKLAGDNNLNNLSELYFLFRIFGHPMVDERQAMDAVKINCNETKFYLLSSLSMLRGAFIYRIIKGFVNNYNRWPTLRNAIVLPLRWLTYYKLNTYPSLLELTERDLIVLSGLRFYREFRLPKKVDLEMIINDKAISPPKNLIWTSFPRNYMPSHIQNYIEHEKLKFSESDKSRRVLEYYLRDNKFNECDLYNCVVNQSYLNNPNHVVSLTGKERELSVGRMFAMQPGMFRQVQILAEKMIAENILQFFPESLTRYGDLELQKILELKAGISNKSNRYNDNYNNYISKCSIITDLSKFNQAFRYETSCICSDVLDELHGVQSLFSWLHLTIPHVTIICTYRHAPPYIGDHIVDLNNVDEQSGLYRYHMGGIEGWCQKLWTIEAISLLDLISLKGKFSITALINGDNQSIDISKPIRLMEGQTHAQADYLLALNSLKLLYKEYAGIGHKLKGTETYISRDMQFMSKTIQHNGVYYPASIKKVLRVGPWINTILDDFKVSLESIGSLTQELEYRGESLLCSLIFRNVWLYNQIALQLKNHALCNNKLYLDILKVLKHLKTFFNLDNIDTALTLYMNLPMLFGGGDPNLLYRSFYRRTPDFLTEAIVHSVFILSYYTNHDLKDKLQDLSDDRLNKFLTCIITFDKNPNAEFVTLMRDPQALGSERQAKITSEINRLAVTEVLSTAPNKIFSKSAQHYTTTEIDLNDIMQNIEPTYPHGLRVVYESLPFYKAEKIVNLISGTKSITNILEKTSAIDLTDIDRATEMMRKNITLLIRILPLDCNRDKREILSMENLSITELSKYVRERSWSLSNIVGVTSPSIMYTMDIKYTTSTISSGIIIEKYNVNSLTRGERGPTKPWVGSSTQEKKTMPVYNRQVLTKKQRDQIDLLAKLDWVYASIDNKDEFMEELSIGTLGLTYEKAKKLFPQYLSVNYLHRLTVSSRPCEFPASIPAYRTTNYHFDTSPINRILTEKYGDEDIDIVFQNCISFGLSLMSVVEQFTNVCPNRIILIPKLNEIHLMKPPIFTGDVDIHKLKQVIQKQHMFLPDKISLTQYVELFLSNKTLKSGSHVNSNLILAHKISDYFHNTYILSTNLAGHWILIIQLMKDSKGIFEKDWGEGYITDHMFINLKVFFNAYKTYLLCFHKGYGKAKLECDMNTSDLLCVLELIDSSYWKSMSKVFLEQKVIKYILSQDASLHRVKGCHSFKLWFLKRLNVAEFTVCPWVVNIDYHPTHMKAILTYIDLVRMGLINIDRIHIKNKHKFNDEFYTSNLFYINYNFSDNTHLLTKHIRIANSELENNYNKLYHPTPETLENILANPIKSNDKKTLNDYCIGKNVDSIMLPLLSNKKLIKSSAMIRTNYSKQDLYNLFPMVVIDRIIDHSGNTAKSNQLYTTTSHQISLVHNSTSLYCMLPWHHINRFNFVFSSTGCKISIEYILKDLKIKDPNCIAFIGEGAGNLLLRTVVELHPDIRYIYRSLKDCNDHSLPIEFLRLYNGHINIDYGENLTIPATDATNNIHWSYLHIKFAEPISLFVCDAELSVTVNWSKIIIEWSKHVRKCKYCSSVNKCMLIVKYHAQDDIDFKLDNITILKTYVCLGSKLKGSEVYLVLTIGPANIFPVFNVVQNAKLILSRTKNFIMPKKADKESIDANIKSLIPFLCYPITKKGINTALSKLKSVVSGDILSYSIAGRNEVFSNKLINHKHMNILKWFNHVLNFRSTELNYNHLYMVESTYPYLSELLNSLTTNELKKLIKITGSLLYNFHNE
Sequence of recombinant RSV complex (P03421 whole entry, further chain): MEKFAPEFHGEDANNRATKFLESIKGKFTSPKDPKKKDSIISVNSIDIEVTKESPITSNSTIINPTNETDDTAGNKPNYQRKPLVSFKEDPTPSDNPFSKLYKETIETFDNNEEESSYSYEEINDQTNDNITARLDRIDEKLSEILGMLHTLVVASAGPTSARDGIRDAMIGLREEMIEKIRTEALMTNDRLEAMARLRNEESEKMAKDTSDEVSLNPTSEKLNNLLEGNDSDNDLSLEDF

What is called EC50 is the concentration needed to bring the measured effect to its halfway point. High values mean weaker potency, low ones greater potency. One may read the CC50 as the concentration that lowers cell viability or growth by half. A lower CC50 goes with greater toxicity to the cells. A word on the IC50: it is the midpoint of a concentration-inhibition curve. In turn, `COc1cc(C(=O)NC[C@@](O)(c2cc3c(c(-c4ccc(F)cc4)n2)OC[C@@]3(C)N)C(F)(F)F)cc2ccc(CO)nc12` [Compound 84] gave an EC50 in series [1] of less than 1000 nM. In series [2], this compound had a CC50 at 5 days of 10 to 100 µM. Further, in series [3], the IC50 is less than 1000 nM.
For `COc1cc(C(=O)NC[C@@](O)(c2cc3c(c(-c4ccc(F)cc4)n2)OC[C@@]3(C)NC(C)=O)C(F)(F)F)ccc1OC[C@@H](C)O` [Compound 85], the EC50 in series [1] is less than 1000 nM. Besides, in series [2], the CC50 at 5 days lay in the range of 10 to 100 µM. The IC50 in series [3] is less than 1000 nM.
Consider `COc1cc(C(=O)NCC(O)(c2cc(C(C)(N)C3CC3)cc(-c3ccc(F)cc3)n2)C(F)(F)F)ccc1OC[C@@H](C)O` (stereo partly drawn) [Compound 88], for which, in series [1], the EC50 is less than 1000 nM. Moreover, in series [2], the CC50 at 5 days fell in the range of 10 to 100 µM. In series [3], the IC50 is less than 1000 nM.
Consider `COc1cc(C(=O)NC[C@@](O)(c2cc3c(c(-c4ccc(F)cc4)n2)OC[C@@]3(C)N)C(F)(F)F)cc2ccc(C(C)(C)O)nc12` [Compound 90], for which the EC50 in series [1] is less than 1000 nM. The same compound showed a CC50 at 5 days in series [2] of 10 to 100 µM. For the same compound, the IC50 in series [3] was less than 1000 nM.
`COc1cc(C(=O)NC[C@@](O)(c2cc3c(c(-c4ccc(F)cc4)n2)OC[C@@]3(C)N)C(F)(F)F)cc2ccc(C(C)O)nc12` (stereo partly drawn) [Compound 91] displayed an EC50 in series [1] of less than 1000 nM. For the same compound, the CC50 at 5 days in series [2] was 10 to 100 µM. Moreover, the IC50 in series [3] is less than 1000 nM.
In series [1], `COc1cc(C(=O)NCC(O)(c2cc3c(c(-c4ccc(F)cc4)n2)OCCC3(N)C2CC2)C(F)(F)F)ccc1OC[C@@H](C)O` (stereo partly drawn) [Compound 92] registered an EC50 of less than 1000 nM. The compound further showed a CC50 at 5 days in series [2] of 10 to 100 µM. Moreover, the IC50 in series [3] is less than 1000 nM.
Compound `COc1nc(C(=O)NC[C@@](O)(c2cc3c(c(-c4ccc(F)cc4)n2)OC[C@@]3(C)N)C(F)(F)F)cc2c1NC(=O)C2` [Compound 93] showed an EC50 in series [1] of 1000 to 50000 nM. In addition, in series [2], the CC50 at 5 days was 10 to 100 µM. Further, in series [3], the IC50 is less than 50000 nM.
The matching figures for `C[C@@]1(N)COc2c1cc([C@](O)(CNC(=O)c1cc(OC(F)F)c3[nH]ccc3c1)C(F)(F)F)nc2-c1ccc(F)cc1` [Compound 94]: less than 1000 nM, 10 to 100 µM and less than 1000 nM.
In the case of `COc1cc(C(=O)NC[C@@](O)(c2cc3c(c(-c4ccc(F)cc4)n2)OC[C@@]3(C)N)C(F)(F)F)cc2nc[nH]c12` [Compound 95], the EC50 in series [1] is less than 1000 nM. For the same compound, the CC50 at 5 days in series [2] lay in the range of 10 to 100 µM. In addition, the IC50 in series [3] was less than 1000 nM.
As to `C[C@@]1(N)COc2c1cc([C@](O)(CNC(=O)c1cc3c(c(OC(F)F)c1)NC(=O)C3)C(F)(F)F)nc2-c1ccc(F)cc1` [Compound 98], the concentration giving a half-maximal response (EC50) in series [1] was less than 1000 nM. In addition, the CC50 at 5 days in series [2] is 10 to 100 µM. Besides, the IC50 in series [3] is less than 1000 nM.
Regarding `COc1cc(C(=O)NC[C@](O)(c2cc3c(c(-c4ccc(F)cc4)n2)NCC[C@]3(C)N)C(F)(F)F)ccc1OC[C@@H](C)O` [Compound 101], in series [1], the EC50 is less than 1000 nM. In series [2], the CC50 at 5 days was 10 to 100 µM. Also, in series [3], the IC50 is less than 1000 nM.
With `COc1cc(C(=O)NCC(O)(c2cc3c(c(-c4ccc(F)cc4)n2)OCC3(N)CO)C(F)(F)F)cc2cc[nH]c12` (stereo not drawn) [Compound 102], the EC50 in series [1] is 1000 to 50000 nM. In series [2], this compound gave a CC50 at 5 days of 10 to 100 µM. The IC50 in series [3] is less than 1000 nM.
The corresponding values for `COc1cc(C(=O)NCC(O)(c2cc3c(c(-c4ccc(F)cc4)n2)OCCC3(C)N)C(F)(F)F)ccc1OC[C@@H](C)O` (stereo partly drawn) [Compound 103] are less than 1000 nM, 10 to 100 µM and less than 1000 nM.
For `COc1cc(C(=O)NCC(O)(c2cc3c(c(-c4ccc(F)cc4)n2)OCC32CCN2)C(F)(F)F)ccc1OC[C@@H](C)O` (stereo partly drawn) [Compound 108], in series [1], the EC50 fell in the range of 1000 to 50000 nM. The CC50 at 5 days in series [2] lay within 10 to 100 µM. The IC50 in series [3] was less than 1000 nM.
The matching figures for `COc1ccc(C(=O)NCC(O)(c2cc3c(c(-c4ccc(F)cc4)n2)OCC3(C)N)C(F)(F)F)nc1OC` (stereo not drawn) [Compound 112]: less than 1000 nM, 10 to 100 µM and less than 1000 nM.
